# According to PMC9354705, “Characterization of TR‐107, a novel chemical activator of the human mitochondrial protease ClpP” (Pharmacology Research & Perspectives, 2022):
# Values joined by “and” are separate entries in the source; they are usually repeats but may differ in a detail not shown here. Equal entries are not always repeated.
# How the values were obtained:
# SUM159 cells = experiment: Cell viability (total cell count, Hoechst stain) in SUM159 cells; assay type: cell-based; conditions: Homo sapiens, WT cells, 72 h, mean N = 3
# Method: Human TNBC cell line SUM159 was a generous gift from Dr. Gary Johnson (the University of North Carolina at Chapel Hill). MDA‐MB‐231 (WT and CLPP‐KO) cells were provided by Dr. Stanley Lipkowitz (National Cancer Institute). MDA‐MB‐231 cells were cultured in RPMI‐1640 media (Gibco, 11875‐093) supplemented with 10% fetal bovine serum (FBS; VWR‐Seradigm, 97068‐085), and 1% antibiotic–antimycotic (anti/anti; ThermoFisher Scientific, 15240062). SUM159 cells were cultured in Dulbecco's modified Eagle's medium: Nutrient Mixture F‐12 (DMEM/F12; Gibco, 11330‐032) supplemented with 5% FBS, 5 μg/ml insulin (Gibco, 12585014), 1 μg/ml hydrocortisone, and 1% anti/anti. Cells were maintained at 5% CO2 and 37°C and periodically tested for mycoplasma.
# Total cell counting assays were performed by seeding MDA‐MB‐231 cells (WT and ClpP‐KO; 4000 cells/well) or SUM159 (WT and ClpP‐KO; 1000 cells/well) in a 96‐well plate (Perkin Elmer, 6005050) and allowed to adhere overnight. The growth medium was then aspirated and replaced with 100 μl of growth medium supplemented with the drug at concentrations indicated in the figure or figure legends. Cells treated with vehicle control (0.1% DMSO, Sigma‐Aldrich D2650) were used as a negative control in all experiments, and cells were incubated with drug‐containing media for 24, 48, or 72 h as indicated in figure legends. Media was then aspirated and replaced with 100 μl Dulbecco's phosphate‐buffered saline (DPBS Gibco, 14190‐144) containing 1 μg/ml Hoechst stain (ThermoFischer Scientific, H3570) and allowed to incubate at 37°C for 30 min. The total cell number was then quantified using the Celigo Imaging Cytometer (Nexcelom).
# [1] = target: purified recombinant human ClpP (Homo sapiens, UniProt Q16740); experiment: In vitro ClpP activity assay (casein‐FITC degradation); assay type: biochemical; conditions: relative to DMSO, read-out: EC50 (nM) ClpP activation
# Sequence of purified recombinant human ClpP (Q16740 57-277): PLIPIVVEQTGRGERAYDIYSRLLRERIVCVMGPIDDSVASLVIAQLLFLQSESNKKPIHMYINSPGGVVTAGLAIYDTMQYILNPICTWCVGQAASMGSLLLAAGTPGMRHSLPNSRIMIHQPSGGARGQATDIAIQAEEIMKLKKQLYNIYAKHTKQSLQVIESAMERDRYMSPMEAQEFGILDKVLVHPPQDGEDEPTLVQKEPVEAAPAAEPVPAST
# Method: Measurement of in vitro activity of purified recombinant human ClpP was performed with a slight modification to the method previously described.[46] Briefly, ClpP activity was measured through the degradation of casein‐FITC (Sigma‐Aldrich, C0528) in the presence of indicated compounds. […] Enzyme and compounds were mixed and incubated in assay buffer for 30 min before adding casein‐FITC substrate. […] Linear slope of fluorescence signal was used to measure ClpP activity and normalized to DMSO control, expressed as RFU/h.
# recombinant human ClpP = target: T1, recombinant human ClpP (Homo sapiens, UniProt Q16740); experiment: Surface plasmon resonance binding to ClpP; conditions: steady state, one‐site Langmuir binding model, 25°C; read-out: Kd (SPR)
# T1 construct: made in house
# T1 sequence (Q16740 57-277): as above
# Method: For the surface plasmon resonance (SPR) experiments, recombinant human ClpP was purified as previously described.[46] SPR measurements were performed on a Biacore X100 instrument (Cytiva Life Sciences) at 25°C in buffer (25 mM sodium phosphate, pH 7.5, 200 mM KCl, 0.05% Tween‐20, and 0.004% DMSO). ClpP was immobilized onto flowcell two of a CM5 chip (Cytive Life Sciences) using the amine coupling wizard using Biacore X100 Control Software. A pulse of a mixture of NHS and EDC activated the CM5 chip surface. ClpP was diluted to 100 μg/ml in 10 mM sodium acetate, pH 4.5 immediately prior to use and injected over the activated surface for 180 s. The remaining activated sites were blocked with a pulse of ethanolamine. 12 000 RU of ClpP was captured using this procedure. Flowcell 1 was unmodified and served as a reference. For TR‐107 binding to ClpP, a concentration series of TR‐107 in DMSO was diluted into the buffer to achieve 0.004% final DMSO concentration in all samples. Three replicates were injected for each concentration. Data were blank subtracted and analysis was performed in Biacore X100 Evaluation Software (Cytiva Life Sciences). The steady‐state response was calculated 15 s before the end of injection with a window of 15 s. Data were fitted to a one‐site Langmuir binding model.
# [2] = system: MDA‐MB‐231 or SUM159 cells; experiment: Caspase‐3/7 activity assay and PARP cleavage; assay type: cell-based, human
# Method: […]. The samples were collected in lysis buffer (50 mM HEPES [pH: 7.4], 5 mM CHAPS, and 5 mM DTT), and caspase activity was measured by monitoring fluorescence (ex/em: 360/460 nm) using a SpectraMax i3x (Molecular Devices).
compound,measurement,setting,value
N#Cc1cccc(CN2CCc3ncn(Cc4ccc(Cl)cc4)c(=O)c3C2)c1 [TR‐107],IC50,SUM159 cells,12 nM
same,EC50,[1],140 nM
same,Kd,recombinant human ClpP,~180 nM and 178 nM
same,caspase‐3/7 activity,"[2]; 24 h, 10 μM ONC201, 150 nM TR‐57, 100 nM TR‐107, 100 nM staurosporine",no increase
same,PARP cleavage,[2]; data not shown,no increase
